The values below come from ChEMBL document CHEMBL4680281, “Recent Advances on Nitrones Design for Stroke Treatment” (J Med Chem, 2020).

The nature of series [1]: Antioxidant activity assessed as SIN1-induced ONOO scavenging activity at 1 mM incubated for 1250 secs by chemiluminescence method relative to control. Format: functional. The following applies: time 1250.0 sec.
The nature of series [2]: Antioxidant activity assessed as SIN1-induced ONOO scavenging activity at 1 uM incubated for 1250 secs by chemiluminescence method relative to control. Format: functional. The following applies: time 1250.0 sec.
In the next series the test system is Rattus norvegicus. Kind of series: Neuroprotective activity in Sprague-Dawley rat model of permanent middle cerebral artery occlusion assessed as infarction volume at 80 mg/kg, ip administered 2 hr post MCAO induction and measured 14 hrs post MCAO challenge by TTC staining based assay (reference value: 27.5%). The series is classed as functional. To be noted: time 12 hrs.

The nature of series [3]: Drug concentration in Sprague-Dawley rat brain at 80 mg/kg, iv measured after 5 mins by reverse-phase HPLC method. Format: ADME, organism-based. The following applies: read-out: Ct.

Take `Cc1nc(C)c(/C=[N+](\[O-])C(C)(C)C)nc1C`: the Activity in series [1] stood at 94.7%; in series [2] it was 35.3%; in the series on Rattus norvegicus, 20.3%. In series [3], the concentration at 5 min is 650 µM.
